Here are results for 18 compounds from patent US10781204B2, “TYK2 inhibitors and uses thereof” (Nimbus Lakshmi, Inc., priority 2015, dated 2020).

In general, EC50 refers to the midpoint of the concentration-response curve. A low value points to a more potent agent. For orientation: Ki means the equilibrium dissociation constant of an inhibitor or competing ligand from its target.

Some results are limits rather than exact numbers.

The subject of assay [1] is JAK2-pSTAT5 (GM-CSF induced pSTAT5). Description: GM-CSF induced pSTAT5 in human PBMC. The class given is cell-based. To be noted: 5 ng/mL GM-CSF. A digest of the protocol:
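Thawed human PBMC, 200,000 per well in serum-containing medium, were preincubated 1 hr at 37 C with compound in 0.1% DMSO. GM-CSF at 5 ng/mL final was added for 20 minutes, then pSTAT5 and total STAT5 in lysates were measured by MSD immunoassay.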

A further assay has as its target JAK2 (Homo sapiens (Human), UniProt O60674). Description: JAK2 radioactive kinase assay. In kind it is biochemical. The conditions noted are these: ATP 10 μM. A digest of the protocol: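 Radiometric assay in Hepes pH 7.5, MgCl2, EGTA, Brij35, BSA, DTT, 1% DMSO, with 10 μM [33P]ATP, 120 min at room temp; P81 paper capture and counting. […]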
Assay [2] relates to Tyk2-pSTAT4 (IL-12 induced pSTAT4). Description: IL-12 induced pSTAT4 in human PBMC. The class given is cell-based. The conditions noted are these: 1.7 ng/mL IL-12, 30 minutes. A digest of the protocol:
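Thawed human PBMC (200,000 cells/well, serum-containing medium) preincubated with compound 1 hr at 37 C, 0.1% DMSO final. Stimulated with 1.7 ng/mL IL-12 (final) for 30 minutes; pSTAT4 and total STAT4 in lysates measured by MSD immunoassay.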

The target of a further assay is TYK2 (Homo sapiens (Human), UniProt P29597). Description: Tyk2 radioactive kinase assay. In kind it is biochemical. The conditions noted are these: ATP 10 μM. A digest of the protocol:
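Recombinant human TYK2 (Invitrogen) was mixed with 20 μM peptide substrate in a buffer of 20 mM Hepes pH 7.5, 10 mM MgCl2, 1 mM EGTA, 0.02% Brij35, 0.02 mg/mL BSA, 0.1 mM […], 2 mM DTT and 1% DMSO, and compounds in DMSO were added. Adding ^33P-ATP (10 μM ATP) started the reaction, which ran 120 min at room temperature. Mixtures were then spotted onto P81 ion-exchange paper, washed thoroughly in 0.75% phosphoric acid, and counted for radioactivity.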

TYK2, sequence (P29597 whole entry): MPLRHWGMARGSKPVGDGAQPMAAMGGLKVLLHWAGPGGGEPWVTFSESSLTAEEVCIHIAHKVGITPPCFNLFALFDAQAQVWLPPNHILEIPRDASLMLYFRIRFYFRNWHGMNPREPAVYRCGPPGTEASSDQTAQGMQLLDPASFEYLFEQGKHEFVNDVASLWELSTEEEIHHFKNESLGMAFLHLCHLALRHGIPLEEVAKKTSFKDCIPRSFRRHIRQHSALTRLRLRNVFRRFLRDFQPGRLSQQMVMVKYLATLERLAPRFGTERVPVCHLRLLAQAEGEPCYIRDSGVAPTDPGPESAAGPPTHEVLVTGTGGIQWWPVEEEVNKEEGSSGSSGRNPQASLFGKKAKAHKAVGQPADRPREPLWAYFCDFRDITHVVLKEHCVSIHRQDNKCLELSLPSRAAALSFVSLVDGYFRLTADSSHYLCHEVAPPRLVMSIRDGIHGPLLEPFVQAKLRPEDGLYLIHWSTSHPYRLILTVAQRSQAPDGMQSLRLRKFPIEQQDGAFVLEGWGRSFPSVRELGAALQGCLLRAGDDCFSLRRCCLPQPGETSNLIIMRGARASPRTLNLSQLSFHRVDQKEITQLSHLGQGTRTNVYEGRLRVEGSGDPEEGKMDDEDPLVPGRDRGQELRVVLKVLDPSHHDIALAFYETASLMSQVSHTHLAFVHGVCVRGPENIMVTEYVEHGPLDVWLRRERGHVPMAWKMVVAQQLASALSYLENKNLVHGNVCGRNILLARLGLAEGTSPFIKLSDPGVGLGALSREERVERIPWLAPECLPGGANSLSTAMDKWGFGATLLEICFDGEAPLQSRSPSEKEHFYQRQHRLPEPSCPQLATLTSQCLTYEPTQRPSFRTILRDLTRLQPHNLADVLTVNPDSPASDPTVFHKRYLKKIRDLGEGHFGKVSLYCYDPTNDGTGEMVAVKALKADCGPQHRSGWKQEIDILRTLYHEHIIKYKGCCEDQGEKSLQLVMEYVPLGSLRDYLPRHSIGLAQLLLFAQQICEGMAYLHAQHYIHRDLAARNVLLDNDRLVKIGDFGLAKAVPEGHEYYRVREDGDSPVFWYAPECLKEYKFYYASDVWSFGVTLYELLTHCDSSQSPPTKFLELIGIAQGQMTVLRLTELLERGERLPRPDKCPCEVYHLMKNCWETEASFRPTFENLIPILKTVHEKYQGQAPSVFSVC
JAK2, sequence (O60674 whole entry): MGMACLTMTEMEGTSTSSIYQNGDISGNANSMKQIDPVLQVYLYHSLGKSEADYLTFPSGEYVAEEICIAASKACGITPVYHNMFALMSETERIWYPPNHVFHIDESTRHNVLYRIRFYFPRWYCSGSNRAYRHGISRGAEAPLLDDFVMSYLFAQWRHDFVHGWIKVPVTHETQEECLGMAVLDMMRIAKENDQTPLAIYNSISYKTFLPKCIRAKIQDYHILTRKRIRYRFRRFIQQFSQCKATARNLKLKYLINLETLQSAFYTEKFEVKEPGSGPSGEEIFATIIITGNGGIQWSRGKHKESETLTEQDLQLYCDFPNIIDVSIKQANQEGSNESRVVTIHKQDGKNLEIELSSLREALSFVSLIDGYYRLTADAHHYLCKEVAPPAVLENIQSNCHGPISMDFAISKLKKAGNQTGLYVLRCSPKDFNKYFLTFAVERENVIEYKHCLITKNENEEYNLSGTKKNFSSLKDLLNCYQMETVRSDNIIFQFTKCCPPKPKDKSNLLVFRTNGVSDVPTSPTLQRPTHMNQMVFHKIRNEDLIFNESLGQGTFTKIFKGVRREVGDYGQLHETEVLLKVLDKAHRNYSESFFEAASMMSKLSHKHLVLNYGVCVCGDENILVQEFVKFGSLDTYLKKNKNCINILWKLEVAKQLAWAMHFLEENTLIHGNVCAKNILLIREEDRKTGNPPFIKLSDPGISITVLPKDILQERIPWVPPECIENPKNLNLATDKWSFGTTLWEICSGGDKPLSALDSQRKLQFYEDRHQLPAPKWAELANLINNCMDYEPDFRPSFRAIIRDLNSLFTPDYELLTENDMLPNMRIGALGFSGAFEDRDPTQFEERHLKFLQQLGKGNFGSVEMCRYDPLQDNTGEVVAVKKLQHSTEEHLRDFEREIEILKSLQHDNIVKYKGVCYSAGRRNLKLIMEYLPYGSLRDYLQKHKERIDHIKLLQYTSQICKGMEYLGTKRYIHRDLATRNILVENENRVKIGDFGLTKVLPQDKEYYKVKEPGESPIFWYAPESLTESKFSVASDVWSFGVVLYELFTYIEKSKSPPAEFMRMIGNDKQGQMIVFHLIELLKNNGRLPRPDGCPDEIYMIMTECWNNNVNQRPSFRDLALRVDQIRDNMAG

For `CN1CCN([C@H]2CCCN(c3ccn(-c4cc(-c5c(F)cccc5C#N)nc5c4C(=O)NC5)n3)C2)CC1` [I-155, (S)-3-fluoro-2-(4-(3-(3-(4-methylpiperazin-1-yl)piperidin-1-yl)-1H-pyrazol-1-yl)-5-oxo-6,7-dihydro-5H-pyrrolo[3,4-b]pyridin-2-yl)benzonitrile], the EC50 is greater than 2000 nM in assay [1] (Homo sapiens, PBMC, 20 min) and 100 to 2000 nM in assay [2] (Homo sapiens, PBMC, 0.5 h). Besides, the Ki was in the range of 10 to 100 nM on JAK2 and 0.1 to 10 nM on TYK2.

Turning to `CC1(C)[C@@H](O)CCN1c1ccn(-c2cc(-c3c(F)cccc3C#N)nc3c2C(=O)NC3)n1` [I-205, (S)-3-fluoro-2-(4-(3-(3-hydroxy-2,2-dimethylpyrrolidin-1-yl)-1H-pyrazol-1-yl)-5-oxo-6,7-dihydro-5H-pyrrolo[3,4-b]pyridin-2-yl)benzonitrile], the EC50 was in the range of 100 to 2000 nM in assay [1] (Homo sapiens, PBMC, 20 min) and 30 to 100 nM in assay [2] (Homo sapiens, PBMC, 0.5 h). Moreover, the Ki lay in the range of 10 to 100 nM at JAK2 and 0.1 to 10 nM on TYK2.

As for `N#Cc1cccc(F)c1-c1cc(-n2ccc(N3CCC[C@@H](N4CCOCC4)C3)n2)c2c(n1)CNC2=O` [I-158, (R)-3-fluoro-2-(4-(3-(3-morpholinopiperidin-1-yl)-1H-pyrazol-1-yl)-5-oxo-6,7-dihydro-5H-pyrrolo[3,4-b]pyridin-2-yl)benzonitrile], the EC50 is greater than 2000 nM in assay [1] (Homo sapiens, PBMC, 20 min) and 100 to 2000 nM in assay [2] (Homo sapiens, PBMC, 0.5 h). For the same compound, the inhibition constant Ki on JAK2 was in the range of 10 to 100 nM; on TYK2, 0.1 to 10 nM.

Consider `[2H]C1([2H])N(c2ccn(-c3cc(-c4c(F)cccc4C#N)nc4c3C(=O)NC4)n2)C([2H])([2H])C([2H])([2H])C([2H])(O)C1([2H])[2H]` [I-203, 3-fluoro-2-(4-(3-(4-hydroxypiperidin-1-yl-2,2,3,3,4,5,5,6,6-d9)-1H-pyrazol-1-yl)-5-oxo-6,7-dihydro-5H-pyrrolo[3,4-b]pyridin-2-yl)benzonitrile], for which the EC50 in assay [1] (Homo sapiens, PBMC, 20 min) fell in the range of 100 to 2000 nM; in assay [2] (Homo sapiens, PBMC, 0.5 h), 30 to 100 nM. Also, the Ki at JAK2 lay within 10 to 100 nM; on TYK2, 0.1 to 10 nM.

As to `N#Cc1cccc(F)c1-c1cc(-n2ccc(N3CCC4(C3)OCCO4)n2)c2c(n1)CNC2=O` [I-100, 2-(4-(3-(1,4-dioxa-7-azaspiro[4.4]nonan-7-yl)-1H-pyrazol-1-yl)-5-oxo-6,7-dihydro-5H-pyrrolo[3,4-b]pyridin-2-yl)-3-fluorobenzonitrile], the concentration for a half-maximal effect (EC50) is 100 to 2000 nM in assay [1] (Homo sapiens, PBMC, 20 min) and 30 to 100 nM in assay [2] (Homo sapiens, PBMC, 0.5 h). For the same compound, the figures for the Ki on JAK2 and at TYK2 were 0.1 to 10 nM and 0.009 to 0.1 nM, respectively.

In the case of `N#Cc1cccc(F)c1-c1cc(-n2ccc(N3CCC[C@](N)(C(F)(F)F)C3)n2)c2c(n1)CNC2=O` [I-119, (R)-2-(4-(3-(3-amino-3-(trifluoromethyl)piperidin-1-yl)-1H-pyrazol-1-yl)-5-oxo-6,7-dihydro-5H-pyrrolo[3,4-b]pyridin-2-yl)-3-fluorobenzonitrile], the EC50 fell in the range of 100 to 2000 nM in assay [1] (Homo sapiens, PBMC, 20 min) and 30 to 100 nM in assay [2] (Homo sapiens, PBMC, 0.5 h). Further, the Ki at JAK2 was in the range of 0.1 to 10 nM; at TYK2, 0.009 to 0.1 nM.

As for `N#Cc1cccc(F)c1-c1cc(-n2ccc(N3CCC[C@@H](CO)C3)n2)c2c(n1)CNC2=O` [I-97, (R)-3-fluoro-2-(4-(3-(3-(hydroxymethyl)piperidin-1-yl)-1H-pyrazol-1-yl)-5-oxo-6,7-dihydro-5H-pyrrolo[3,4-b]pyridin-2-yl)benzonitrile], the EC50 in assay [1] (Homo sapiens, PBMC, 20 min) was in the range of 100 to 2000 nM; in assay [2] (Homo sapiens, PBMC, 0.5 h), 30 to 100 nM. The values for the Ki at JAK2 and at TYK2 were 10 to 100 nM and 0.1 to 10 nM, respectively.

Regarding `N#Cc1cccc(F)c1-c1cc(-n2ccc(N3CCOC[C@@H](O)C3)n2)c2c(n1)CNC2=O` [I-131, (S)-3-fluoro-2-(4-(3-(6-hydroxy-1,4-oxazepan-4-yl)-1H-pyrazol-1-yl)-5-oxo-6,7-dihydro-5H-pyrrolo[3,4-b]pyridin-2-yl)benzonitrile], the EC50 in assay [1] (Homo sapiens, PBMC, 20 min) is greater than 2000 nM; in assay [2] (Homo sapiens, PBMC, 0.5 h) it was 30 to 100 nM. For the same compound, the Ki on JAK2 fell in the range of 10 to 100 nM; on TYK2, 0.1 to 10 nM.

On to `N#Cc1cccc(F)c1-c1cc(-n2ccc(N3CCCC(C(N)=O)C3)n2)c2c(n1)CNC2=O` (stereo not drawn) [I-122, 1-(1-(2-(2-cyano-6-fluorophenyl)-5-oxo-6,7-dihydro-5H-pyrrolo[3,4-b]pyridin-4-yl)-1H-pyrazol-3-yl)piperidine-3-carboxamide], for which the EC50 in assay [1] (Homo sapiens, PBMC, 20 min) lay in the range of 100 to 2000 nM; in assay [2] (Homo sapiens, PBMC, 0.5 h), 100 to 2000 nM. Further, the Ki on JAK2 was in the range of 10 to 100 nM; at TYK2, 0.1 to 10 nM.

Consider `CO[C@@H]1CN(c2ccn(-c3cc(-c4c(F)cccc4C#N)nc4c3C(=O)NC4)n2)CC[C@H]1O` [I-201, 3-fluoro-2-(4-(3-((3R,4R)-4-hydroxy-3-methoxypiperidin-1-yl)-1H-pyrazol-1-yl)-5-oxo-6,7-dihydro-5H-pyrrolo[3,4-b]pyridin-2-yl)benzonitrile], for which the values for the EC50 in assay [1] (20 minutes) and in assay [2] were 100 to 2000 nM and 30 to 100 nM, respectively. Moreover, the Ki at JAK2 lay in the range of 10 to 100 nM; on TYK2, 0.1 to 10 nM.

Turning to `[2H]C([2H])([2H])O[C@@H]1CN(c2ccn(-c3cc(-c4c(F)cccc4C#N)nc4c3C(=O)NC4)n2)C[C@@H]1O` [I-223, 3-fluoro-2-(4-(3-((3S,4R)-3-hydroxy-4-(methoxy-d3)pyrrolidin-1-yl)-1H-pyrazol-1-yl)-5-oxo-6,7-dihydro-5H-pyrrolo[3,4-b]pyridin-2-yl)benzonitrile], the EC50 is 100 to 2000 nM in assay [1] (Homo sapiens, PBMC, 20 min) and 100 to 2000 nM in assay [2] (Homo sapiens, PBMC, 0.5 h). Also, the Ki lay in the range of 10 to 100 nM on JAK2 and 0.1 to 10 nM at TYK2.

With `CO[C@@H]1CCN(c2ccn(-c3cc(-c4c(F)cccc4C#N)nc4c3C(=O)NC4)n2)C[C@]1(C)O` [I-228, 3-fluoro-2-(4-(3-((3S,4R)-3-hydroxy-4-methoxy-3-methylpiperidin-1-yl)-1H-pyrazol-1-yl)-5-oxo-6,7-dihydro-5H-pyrrolo[3,4-b]pyridin-2-yl)benzonitrile], the EC50 in assay [1] (20 minutes) and in assay [2] was 100 to 2000 nM each time. For the same compound, the figures for the Ki on JAK2 and at TYK2 were 10 to 100 nM and 0.1 to 10 nM, respectively.

For the compound `[2H]C1([2H])C[C@H](O)C([2H])([2H])N1c1ccn(-c2cc(-c3c(F)cccc3C#N)nc3c2C(=O)NC3)n1` [I-142, (S)-3-fluoro-2-(4-(3-(3-hydroxypyrrolidin-1-yl-2,2,5,5-d4)-1H-pyrazol-1-yl)-5-oxo-6,7-dihydro-5H-pyrrolo[3,4-b]pyridin-2-yl)benzonitrile], the EC50 in assay [1] (Homo sapiens, PBMC, 20 min) fell in the range of 100 to 2000 nM; in assay [2] (Homo sapiens, PBMC, 0.5 h), 30 to 100 nM. Besides, the Ki on JAK2 was 0.1 to 10 nM; at TYK2, 0.009 to 0.1 nM.

As to `C[C@H]1[C@H](O)CCN1c1ccn(-c2cc(-c3c(F)cccc3C#N)nc3c2C(=O)NC3)n1` [I-150, 3-fluoro-2-(4-(3-((2S,3R)-3-hydroxy-2-methylpyrrolidin-1-yl)-1H-pyrazol-1-yl)-5-oxo-6,7-dihydro-5H-pyrrolo[3,4-b]pyridin-2-yl)benzonitrile], the EC50 in assay [1] (Homo sapiens, PBMC, 20 min) is greater than 2000 nM; in assay [2] (Homo sapiens, PBMC, 0.5 h), 30 to 100 nM. Besides, the Ki at JAK2 lay within 0.1 to 10 nM; on TYK2 it was 0.009 to 0.1 nM.

With `[2H]C1([2H])NC(=O)c2c(-n3ccc(N4CCC[C@@](C)(O)C4)n3)cc(-c3c(F)cccc3C#N)nc21` [I-111, (R)-3-fluoro-2-(4-(3-(3-hydroxy-3-methylpiperidin-1-yl)-1H-pyrazol-1-yl)-5-oxo-6,7-dihydro-5H-pyrrolo[3,4-b]pyridin-2-yl-7,7-d2)benzonitrile], the EC50 was in the range of 100 to 2000 nM in assay [1] (Homo sapiens, PBMC, 20 min) and 30 to 100 nM in assay [2] (Homo sapiens, PBMC, 0.5 h). Further, the Ki on JAK2 lay within 10 to 100 nM; at TYK2, 0.1 to 10 nM.

As for `[2H]C1([2H])N(c2ccn(-c3cc(-c4c(F)cccc4C#N)nc4c3C(=O)NC4)n2)C([2H])([2H])C(C)(O)C([2H])([2H])C1([2H])[2H]` (stereo not drawn) [I-186, 3-fluoro-2-(4-(3-(3-hydroxy-3-methylpiperidin-1-yl-2,2,4,4,5,5,6,6-d8)-1H-pyrazol-1-yl)-5-oxo-6,7-dihydro-5H-pyrrolo[3,4-b]pyridin-2-yl)benzonitrile], the EC50 is greater than 2000 nM in assay [1] (Homo sapiens, PBMC, 20 min) and 100 to 2000 nM in assay [2] (Homo sapiens, PBMC, 0.5 h). Also, the Ki on JAK2 lay in the range of 10 to 100 nM; on TYK2 it was 0.1 to 10 nM.

Take `N#Cc1cccc(F)c1-c1cc(-n2ccc(N3C[C@H]4CC[C@@H](C3)O4)n2)c2c(n1)CNC2=O` [I-188, 2-(4-(3-((1R,5S)-8-oxa-3-azabicyclo[3.2.1]octan-3-yl)-1H-pyrazol-1-yl)-5-oxo-6,7-dihydro-5H-pyrrolo[3,4-b]pyridin-2-yl)-3-fluorobenzonitrile]: the EC50 is 100 to 2000 nM in assay [1] (Homo sapiens, PBMC, 20 min) and 100 to 2000 nM in assay [2] (Homo sapiens, PBMC, 0.5 h). The results for the Ki at JAK2 and at TYK2 were 0.1 to 10 nM and 0.009 to 0.1 nM, respectively.

Turning to `C[C@]1(O)CCCN(c2ccn(-c3cc(-c4c(F)cccc4C#N)nc4c3C(=O)NC4)n2)C1` [I-72, (S)-3-fluoro-2-(4-(3-(3-hydroxy-3-methylpiperidin-1-yl)-1H-pyrazol-1-yl)-5-oxo-6,7-dihydro-5H-pyrrolo[3,4-b]pyridin-2-yl)benzonitrile], the EC50 in assay [1] (Homo sapiens, PBMC, 20 min) is greater than 2000 nM; in assay [2] (Homo sapiens, PBMC, 0.5 h), 100 to 2000 nM. Moreover, the Ki at JAK2 and at TYK2 was 0.1 to 10 nM each time.
